After the bases stand the sugars from the 5' end (letter, count) and the backbone: PS all phosphorothioate, else s phosphorothioate and o phosphodiester by linkage. Methylation of C is not given here. e = 2'-O-(2-methoxyethyl) (MOE); k = constrained ethyl (cEt); d = 2'-deoxy (DNA); m = 2'-O-methyl
Biological target: HSD17B13
Settings: ASO, HepaRG

Sequence | target mRNA inhibition (1 µM) [%] | other results
ATCTATCAGACTTCTT (sugars k3 d9 k3 e1, PS) | 51 | –
CTTACGACTTCATCTG (sugars k3 d10 k3, PS) | 38 | –
TTTGCAGCATTGATTC (sugars k3 d10 k3, PS) | 53 | –
AAAAGTGTCCTCGATC (sugars k3 d10 k3, PS) | 17 | –
AATATGGGATGAGGTA (sugars kkdddddddddkekek, PS) | 52 | –
CCTCGATCCTATATAC (sugars kkdddddddddkekek, PS) | 3 | –
CCTGCCTATTCCATGC (sugars k3 d10 k3, PS) | 24 | –
GGGCTAATGAAAAAGG (sugars k3 d10 k3, PS) | 14 | –
GTAGTCCTAGGGAGGA (sugars k3 d10 k3, PS) | 77 | target mRNA inhibition (0.02 µM): 20%; target mRNA inhibition (0.078 µM): 50%; target mRNA inhibition (0.313 µM): 62%; target mRNA inhibition (1.25 µM): 75%; target mRNA inhibition (5 µM): 86%
GCTAAAATGGTCATCT (sugars k3 d10 k3, PS) | 40 | –
TTTCGAATCATTAAGC (sugars k3 d10 k3, PS) | 30 | –
GCTATAGGTAGCTAAT (sugars k3 d10 k3, PS) | 20 | –
GAGTCGGTCACCTTTC (sugars k3 d10 k3, PS) | 82 | target mRNA inhibition (0.02 µM): 0%; target mRNA inhibition (0.078 µM): 30%; target mRNA inhibition (0.313 µM): 55%; target mRNA inhibition (1.25 µM): 82%; target mRNA inhibition (5 µM): 82%
AAATAGAGTCGGTCAC (sugars k3 d9 k3 e1, PS) | 48 | –
GTTGTTAATGTAGTGT (sugars k3 d10 k3, PS) | 77 | target mRNA inhibition (0.02 µM): 0%; target mRNA inhibition (0.078 µM): 18%; target mRNA inhibition (0.313 µM): 42%; target mRNA inhibition (1.25 µM): 67%; target mRNA inhibition (5 µM): 90%
GCATTCATCAGATGTT (sugars k3 d10 k3, PS) | 89 | target mRNA inhibition (0.02 µM): 3%; target mRNA inhibition (0.078 µM): 24%; target mRNA inhibition (0.313 µM): 66%; target mRNA inhibition (1.25 µM): 86%; target mRNA inhibition (5 µM): 91%
ACAAGAGTTCTTGCAG (sugars k3 d10 k3, PS) | 29 | –
CATAATAATAGCTCTA (sugars k3 d1 m1 d8 k3, PS) | 33 | –
TGGCATGGCTACAGAT (sugars k3 d10 k3, PS) | 57 | –
GATCUCTTAGCTGTGC (sugars k3 d1 m1 d8 k3, PS) | 65 | –
CAGTTTTCCTCATGAT (sugars kkdddddddddkekek, PS) | 59 | –
GAATAGCCATGTAGCT (sugars k3 d10 k3, PS) | 21 | –

Sequence | target mRNA inhibition (1 µM) [%] | other results
GCATAAGTTACCAGAG (sugars k3 d10 k3, PS) | 79 | target mRNA inhibition (0.02 µM): 0%; target mRNA inhibition (0.078 µM): 0%; target mRNA inhibition (0.313 µM): 40%; target mRNA inhibition (1.25 µM): 51%; target mRNA inhibition (5 µM): 85%
TGAGAGTATAAATGGC (sugars k3 d10 k3, PS) | 67 | –
TCTAAGTTAGCCCCCA (sugars kkdddddddddkekek, PS) | 19 | –
CCTCCTTATTTGTTAG (sugars k3 d10 k3, PS) | 41 | –
TCAGTCCTTGTGTAGT (sugars k3 d10 k3, PS) | 72 | –
AGTTAGGGAGCCAGCG (sugars k3 d10 k3, PS) | 38 | –
TAAAATAGAGTCGGTC (sugars kkdddddddddkekek, PS) | 68 | –
TGTAATAGCCAGTACA (sugars k3 d10 k3, PS) | 46 | –
TCCAAATCAGGTAGTT (sugars k3 d10 k3, PS) | 22 | –
TTGAAGACAATACAGG (sugars k3 d10 k3, PS) | 63 | –
AGTCATTTTTAATACG (sugars k3 d10 k3, PS) | 13 | –
ACAAGTGACAGCATTG (sugars k3 d10 k3, PS) | 44 | –
GTTTTGATACCAGTTT (sugars k3 d10 k3, PS) | 67 | –
AGCATAAGTTACCAGA (sugars k3 d10 k3, PS) | 87 | target mRNA inhibition (0.02 µM): 14%; target mRNA inhibition (0.078 µM): 31%; target mRNA inhibition (0.313 µM): 49%; target mRNA inhibition (1.25 µM): 73%; target mRNA inhibition (5 µM): 92%
CTCAGGCTGTAAGAGT (sugars k3 d10 k3, PS) | 21 | –
TACCTCTAAGTTAGCC (sugars kkdddddddddkekek, PS) | 20 | –
GAAGTTCTGATGTCAG (sugars k3 d10 k3, PS) | 0 | –
CCGCACACTGAAGCCA (sugars k3 d10 k3, PS) | 34 | –
GGCAAATACAGCAGTA (sugars k3 d10 k3, PS) | 64 | –
GAACCAATATGCTCTG (sugars k3 d10 k3, PS) | 61 | –
TGGGATAGTGGAGGAA (sugars k3 d10 k3, PS) | 13 | –
GAGCATAAGTTACCAG (sugars k3 d10 k3, PS) | 61 | –

Sequence | target mRNA inhibition (1 µM) [%] | other results
CCCGCCCTTAAGTCAT (sugars k3 d10 k3, PS) | 45 | –
GCATGGCTACAGATTG (sugars k3 d10 k3, PS) | 56 | –
AGGTTGAGATAAAGCT (sugars kkdddddddddkekek, PS) | 60 | –
GATCTCTTAGCTGTGC (sugars k3 d9 k3 e1, PS) | 70 | –
GGCAAGGATACCTGAA (sugars k3 d10 k3, PS) | 67 | –
CCAGAAGTATGTGAAC (sugars k3 d10 k3, PS) | 8 | –
GTGGCATGGCTACAGA (sugars k3 d1 m1 d8 k3, PS) | 49 | –
CAGTTATTAGAAGTCA (sugars k3 d10 k3, PS) | 85 | target mRNA inhibition (0.02 µM): 0%; target mRNA inhibition (0.078 µM): 0%; target mRNA inhibition (0.313 µM): 0%; target mRNA inhibition (1.25 µM): 56%; target mRNA inhibition (5 µM): 88%
AGCTGAGAGTTCTACA (sugars k3 d10 k3, PS) | 67 | –
ATAACATGGCTGGCAT (sugars k3 d10 k3, PS) | 14 | –
CCACATAGCTAACTCA (sugars k3 d10 k3, PS) | 53 | –
GTCCTTTGTATTTCGC (sugars k3 d10 k3, PS) | 45 | –
AAAGACTTTGAGACTC (sugars k3 d1 m1 d8 k3, PS) | 76 | target mRNA inhibition (0.02 µM): 14%; target mRNA inhibition (0.078 µM): 28%; target mRNA inhibition (0.313 µM): 42%; target mRNA inhibition (1.25 µM): 66%; target mRNA inhibition (5 µM): 77%
AATCCCAACCAAACTT (sugars k3 d9 k3 e1, PS) | 13 | –
CATAGGACATGGAGAC (sugars k3 d10 k3, PS) | 69 | target mRNA inhibition (0.02 µM): 0%; target mRNA inhibition (0.078 µM): 16%; target mRNA inhibition (0.313 µM): 37%; target mRNA inhibition (1.25 µM): 58%; target mRNA inhibition (5 µM): 83%
AGTTATTAGAAGTCAG (sugars k3 d1 m1 d8 k3, PS) | 25 | –
TGTCCTAGGATGTTGA (sugars k3 d10 k3, PS) | 41 | –
TGTTAAGCAGATGGCT (sugars k3 d10 k3, PS) | 39 | –
CAAGTGACAGCATTGA (sugars k3 d10 k3, PS) | 48 | –
CCTTACCAGAATTTAC (sugars k3 d10 k3, PS) | 63 | –
AGTGAAATCTTGTGTA (sugars k3 d10 k3, PS) | 41 | –
TACAGATTGGAATGCT (sugars k3 d1 m1 d8 k3, PS) | 60 | –

Sequence | target mRNA inhibition (1 µM) [%] | other results
AGTCGGTCACCTTTCA (sugars k3 d9 k3 e1, PS) | 75 | target mRNA inhibition (0.02 µM): 1%; target mRNA inhibition (0.078 µM): 17%; target mRNA inhibition (0.313 µM): 37%; target mRNA inhibition (1.25 µM): 66%; target mRNA inhibition (5 µM): 62%
GAGTTGCACCGTTTTG (sugars kkdddddddddkekek, PS) | 61 | –
TGAAAACTCAGCCAGC (sugars k3 d10 k3, PS) | 77 | target mRNA inhibition (0.02 µM): 15%; target mRNA inhibition (0.078 µM): 33%; target mRNA inhibition (0.313 µM): 65%; target mRNA inhibition (1.25 µM): 80%; target mRNA inhibition (5 µM): 95%
TTATTATGTGATTGAG (sugars k3 d10 k3, PS) | 23 | –
CCAATACAGGCCATAA (sugars k3 d10 k3, PS) | 38 | –
ATTGAGATGACAGTGG (sugars k3 d10 k3, PS) | 70 | target mRNA inhibition (0.02 µM): 21%; target mRNA inhibition (0.078 µM): 40%; target mRNA inhibition (0.313 µM): 64%; target mRNA inhibition (1.25 µM): 77%; target mRNA inhibition (5 µM): 91%
GAAATTGATACACCAA (sugars kkdddddddddkekek, PS) | 68 | –
ACATCTCTGGGACCAA (sugars k3 d10 k3, PS) | 78 | –
CCCACAGAACCAATAT (sugars k3 d10 k3, PS) | 16 | –
TTCCGAAAAAAGTGGA (sugars k3 d10 k3, PS) | 13 | –
TGACAATGGTTGATAG (sugars k3 d1 m1 d8 k3, PS) | 42 | –
AGGTAAGGAATCCCTT (sugars k3 d10 k3, PS) | 0 | –
CATAACTTCATAGTGG (sugars k3 d9 k3 e1, PS) | 16 | –
CTGGATATACTGTCCC (sugars k3 d10 k3, PS) | 20 | –
CAAAAGACTTTGAGAC (sugars kkdddddddddkekek, PS) | 32 | –
TCATTTAGCAGCTTGG (sugars k3 d10 k3, PS) | 79 | target mRNA inhibition (0.02 µM): 12%; target mRNA inhibition (0.078 µM): 31%; target mRNA inhibition (0.313 µM): 43%; target mRNA inhibition (1.25 µM): 87%; target mRNA inhibition (5 µM): 84%
CATTTAGAATACGCTG (sugars k3 d10 k3, PS) | 25 | –
TGCAAAGTTAATAGGA (sugars k3 d10 k3, PS) | 43 | –
ATACTGTCCCAGCATT (sugars k3 d10 k3, PS) | 32 | –
GAATGCTACTTGAACA (sugars k3 d1 m1 d8 k3, PS) | 48 | –
CTGGGATACTATTCTC (sugars k3 d10 k3, PS) | 57 | –

Source: the OligoGym collection
